The source of these data is ChEMBL document CHEMBL5247681, “Covalent S-Adenosylhomocysteine-Based DNA Methyltransferase 2 Inhibitors with a New Type of Aryl Warhead” (ACS Med Chem Lett, 2023).

What all share (format): physicochemical
The nature of data set [1]: Stability of compound in TRIS buffer at pH 8 assessed as compound conversion in presence of DTT measured after 15 mins by LC-MS analysis. The following applies: TRIS buffer with DTT, read-out: Drug metabolism.
A short description of data set [2]: Stability of compound in TRIS buffer at pH 8 assessed as compound conversion in presence of DTT measured after 90 mins by LC-MS analysis. The following applies: TRIS buffer with DTT, read-out: Drug metabolism.
A short description of data set [3]: Stability of compound in TRIS buffer at pH 8 assessed as compound conversion in presence of DTT measured for 2 to 90 mins by LC-MS analysis. The following applies: time 2-90 min.

Turning to `Nc1ncnc2c1ncn2[C@@H]1O[C@H](CN(CC[C@H](N)C(=O)O)S(=O)(=O)c2ccc(Cl)c([N+](=O)[O-])c2)[C@@H](O)[C@H]1O`, in data set [1], the degraded at 0.25 h came out at 60%. In addition, in data set [2], the degraded at 1.5 h is 100%. Besides, the Stability entry in data set [3] was “Unstable”.
Consider `Nc1ncnc2c1ncn2[C@@H]1O[C@H](CN(CC[C@H](N)C(=O)O)S(=O)(=O)c2ccc(F)c([N+](=O)[O-])c2)[C@@H](O)[C@H]1O`, for which the Stability result in data set [3] is “Unstable”.
Turning to `Nc1ncnc2c1ncn2[C@@H]1O[C@H](CN(CC[C@H](N)C(=O)O)S(=O)(=O)c2ccc(Br)c([N+](=O)[O-])c2)[C@@H](O)[C@H]1O`, the degraded at 0.25 h in data set [1] is 60%. Besides, the degraded at 1.5 h in data set [2] turned out to be 100%. Besides, the Stability entry in data set [3] is “Unstable”.
